Test results reported in patent US11661405B2, “Crystal forms of tetrahydro-n,n-dimethyl-2,2-diphenyl-3-furanmethanamine hydrochloride, processes of making such forms, and their pharmaceutical compositions” (ANAVEX LIFE SCIENCES CORP., priority 2015, dated 2023).

Experiments:
[1] = test system: amyloid toxicity (Aβ25-35); details: cited from earlier work
[2] = test system: PI3K neuroprotective pathway (P-Akt, P-GSK-3β), Tau, Aβ1-42; details: cited from earlier work
[3] = storage stability of crystalline forms, checked by PXRD; assay type: physicochemical; details: 40° C., 75% relative humidity, uncapped vessels, 1 week; forms from SCF in ethanol or dichloromethane
Source text: The present disclosure also provides a metabolite of tetrahydro-N,N-dimethyl-2,2-diphenyl-3-furanmethanamine hydrochloride, ANAVEX19-144. […] See for example J. of Psychopharmacol. 25(8), 1101-1117 (2011). Crystalline forms of ANAVEX19-144 were produced by placing the ANAVEX19-144 starting material in a solvent of ethanol or dichloromethane and processed by the supercritical fluid technique. The crystalline form of ANAVEX19-144 produced by the supercritical fluid technique under process parameters of 40 mg/mL ethanol solution, 200 bars of pressure, temperature of 80° C., supercritical CO2 solution with a flow rate of 20 g/min and a TS flow of 0.4 mL/min, was characterized by PXRD, FTIR, DSC, and SEM, as shown in FIGS. 12-15. […] The crystalline form of ANAVEX19-144 produced using the dichloromethane supercritical fluid technique produced a powder with better flow characteristics and improved flow properties for downstream processing. The two crystalline forms of ANAVEX19-144, produced according to the supercritical fluid technique in ethanol or dichloromethane were stored at 40° C. at 75% relative humidity in uncapped vessels for 1 week and then characterized by PXRD to determine stability of the two forms.

| stability of the two crystalline forms (PXRD after storage) [3] | Compound | oxidative stress, caspases induction, cellular loss and learning and memory deficits ([1]; mice one week after i.c.v. injection of oligomeric Aβ25-35) | neuroprotective potential against amyloid toxicity ([1]; mice) | Aβ25-35-induced P-Akt decrease and P-GSK-3β increase ([2]; Aβ25-35-induced) | Aβ25-35-induced endogenous Aβ1-42 seeding ([2]; Aβ25-35-induced) | hyperphosphorylation of Tau on physiological epitopes (AT-8 clone) and pathological epitopes (AT-100 clone) ([2]; in the dose-range tested) |
| --- | --- | --- | --- | --- | --- | --- |
| – | CN(C)CC1CCOC1(c1ccccc1)c1ccccc1.Cl (stereo not drawn) [ANAVEX2-73, tetrahydro-N,N-dimethyl-2,2-diphenyl-3-furanmethanamine hydrochloride] | attenuating | shows neuroprotective potential against amyloid toxicity | blocked | decrease | attenuated |
| stable under the conditions tested | CNCC1CCOC1(c1ccccc1)c1ccccc1.Cl (stereo not drawn) [ANAVEX19-144] | – | – | – | – | – |
